“And” between values parts separate entries of the source, which are not always exact repeats. Identical values can stand only once. Toxic doses and inconclusive results are not listed.
Test system: P388 leukemia ip, CD2F1 mice, survival T/C
Experiment: NCI In Vivo Anticancer Drug Screen. Data for tumor model P388 Leukemia (intraperitoneal) in CD2F1 (CDF1) mice
Details: endpoint: median survival time, higher = longer survival
In short: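 Mice carrying the transplanted tumor received test compound or vehicle. Survival was recorded in each group, and the value is the treated-group measurement divided by that of the vehicle-treated control group.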

[1] = dose: 60.0 mg/kg/injection, schedule: Q01DX005 (ip), vehicle: saline with Tween-80
[2] = dose: 120.0 mg/kg/injection, schedule: Q01DX005 (ip), vehicle: saline with Tween-80
[3] = dose: 240.0 mg/kg/injection, schedule: Q01DX005 (ip), vehicle: saline with Tween-80
[4] = dose: 50.0 mg/kg/injection, schedule: Q01DX005 (ip), vehicle: Klucel (hydroxypropylcellulose) (HPC)
[5] = dose: 100.0 mg/kg/injection, schedule: Q01DX005 (ip), vehicle: Klucel (hydroxypropylcellulose) (HPC)
[6] = dose: 200.0 mg/kg/injection, schedule: Q01DX005 (ip), vehicle: Klucel (hydroxypropylcellulose) (HPC)
[7] = dose: 60.0 mg/kg/injection, schedule: Q01DX005 (ip), vehicle: Klucel (hydroxypropylcellulose) (HPC)
[8] = dose: 120.0 mg/kg/injection, schedule: Q01DX005 (ip), vehicle: Klucel (hydroxypropylcellulose) (HPC)
[9] = dose: 240.0 mg/kg/injection, schedule: Q01DX005 (ip), vehicle: Klucel (hydroxypropylcellulose) (HPC)

SMILES: COc1nc(NC2OC(COC(C)=O)C(OC(C)=O)C(OC(C)=O)C2OC(C)=O)c(N=CC=Nc2c(NC3OC(COC(C)=O)C(OC(C)=O)C(OC(C)=O)C3OC(C)=O)nc(OC)[nH]c2=O)c(=O)[nH]1 (stereo not given)
- T/C [1]: 89 % of control
- T/C [2]: 90 % of control
- T/C [3]: 95 % of control

SMILES: CSc1nc(Cl)cc(N2CC2)n1
- T/C (dose: 0.5 mg/kg/injection, schedule: Q04DX003 (ip), vehicle: saline): 110 % of control
- T/C (dose: 1.0 mg/kg/injection, schedule: Q04DX003 (ip), vehicle: saline): 100 % of control
- T/C (dose: 2.0 mg/kg/injection, schedule: Q04DX003 (ip), vehicle: saline): 100 % of control

SMILES: O=C(OCCS(=O)(=O)CCOC(=O)ON1C(=O)CCC1=O)ON1C(=O)CCC1=O
- T/C [4]: 109 % of control
- T/C [5]: 109 % of control
- T/C [6]: 115 % of control

SMILES: CN1C(=O)c2ccccc2C2(C1=O)C(C#N)=C(N)Oc1c2c2ccccc2c(=O)n1C (stereo not given)
- T/C [7]: 99 % of control
- T/C [8]: 95 % of control
- T/C [9]: 88 % of control

SMILES: CC1=C([N+](=O)[O-])[C@@H](N2CCOCC2)[C@](C)(N2CCOCC2)S1
- T/C [4]: 105 % of control
- T/C [5]: 105 % of control
- T/C [6]: 105 % of control

SMILES: O=C(OC1OC(COCc2ccccc2)C(OCc2ccccc2)C(OCc2ccccc2)C1OCc1ccccc1)c1ccc([N+](=O)[O-])cc1 (stereo not given)
- T/C (dose: 100.0 mg/kg/injection, schedule: Q01DX001 (ip), vehicle: saline with Tween-80): 92 % of control
- T/C (dose: 200.0 mg/kg/injection, schedule: Q01DX001 (ip), vehicle: saline with Tween-80): 90 % of control

SMILES: COc1ccc2c(c1)C(O)C(CO)C(C(=O)O)C2 (stereo not given)
- T/C [4]: 106 % of control
- T/C [5]: 101 % of control
- T/C [6]: 101 % of control

SMILES: C=Cn1ccnc1C.C=Cn1ccnc1C.CC(=O)CC(C)=O.CC(=O)CC(C)=O.[Co]
- T/C (dose: 12.5 mg/kg/injection, schedule: Q04DX003 (ip), vehicle: saline): 117 % of control and 95 % of control
- T/C (dose: 25.0 mg/kg/injection, schedule: Q04DX003 (ip), vehicle: saline): 102 % of control and 117 % of control
- T/C (dose: 50.0 mg/kg/injection, schedule: Q04DX003 (ip), vehicle: saline): 105 % of control and 123 % of control

SMILES: COc1ccc(-c2nc(C)cc3cc(OC)c(OC)cc23)cc1OC
- T/C (dose: 12.5 mg/kg/injection, schedule: Q01DX009 (ip), vehicle: water): 98 % of control
- T/C (dose: 25.0 mg/kg/injection, schedule: Q01DX009 (ip), vehicle: water): 100 % of control
- T/C (dose: 50.0 mg/kg/injection, schedule: Q01DX009 (ip), vehicle: water): 100 % of control
- T/C (dose: 100.0 mg/kg/injection, schedule: Q01DX009 (ip), vehicle: water): 100 % of control

SMILES: COc1ccc(N(CN2C(=O)CCC2=O)CS(=O)(=O)c2ccc(C)cc2)cc1
- T/C [7]: 100 % of control
- T/C [8]: 100 % of control
- T/C [9]: 100 % of control

SMILES: CCCCC1(C2c3ccccc3Oc3ccccc32)C(=O)N(c2ccccc2)N(c2ccccc2)C1=O
- T/C [1]: 98 % of control
- T/C [2]: 93 % of control
- T/C [3]: 90 % of control

SMILES: CNC(=O)OCc1nn(-c2ccc(Cl)cc2)c(C)c1COC(=O)NC
- T/C (dose: 1.56 mg/kg/injection, schedule: Q01DX009 (ip), vehicle: distilled water + Tween-80): 103 % of control
- T/C (dose: 3.12 mg/kg/injection, schedule: Q01DX009 (ip), vehicle: distilled water + Tween-80): 100 % of control
- T/C (dose: 6.25 mg/kg/injection, schedule: Q01DX009 (ip), vehicle: distilled water + Tween-80): 97 % of control
- T/C (dose: 12.5 mg/kg/injection, schedule: Q01DX009 (ip), vehicle: distilled water + Tween-80): 101 % of control and 89 % of control and 95 % of control
- T/C (dose: 25.0 mg/kg/injection, schedule: Q01DX009 (ip), vehicle: distilled water + Tween-80): 93 % of control
- T/C (dose: 100.0 mg/kg/injection, schedule: Q01DX009 (ip), vehicle: distilled water + Tween-80): 101 % of control and 93 % of control
- T/C (dose: 200.0 mg/kg/injection, schedule: Q01DX009 (ip), vehicle: distilled water + Tween-80): 102 % of control and 108 % of control

SMILES: CCOC(=O)Nc1cc(NC(c2ccccc2)c2ccccc2)c2[nH]cnc2n1
- T/C (dose: 25.0 mg/kg/injection, schedule: Q01DX009 (ip), vehicle: saline with Tween-80): 88 % of control
- T/C (dose: 50.0 mg/kg/injection, schedule: Q01DX009 (ip), vehicle: saline with Tween-80): 88 % of control
- T/C (dose: 100.0 mg/kg/injection, schedule: Q01DX009 (ip), vehicle: saline with Tween-80): 117 % of control
- T/C (dose: 200.0 mg/kg/injection, schedule: Q01DX009 (ip), vehicle: saline with Tween-80): 96 % of control

SMILES: CN(C)CCNc1ccc(NCCN(C)C)c2c1C(=O)c1ccccc1C2=O
- T/C (dose: 2.5 mg/kg/injection, schedule: Q01DX009 (ip), vehicle: distilled water + Tween-80): 117 % of control
- T/C (dose: 5.0 mg/kg/injection, schedule: Q01DX009 (ip), vehicle: distilled water + Tween-80): 124 % of control
- T/C (dose: 20.0 mg/kg/injection, schedule: Q01DX009 (ip), vehicle: acid diluted with saline): 163 % of control
- T/C (dose: 20.0 mg/kg/injection, schedule: Q01DX009 (ip), vehicle: distilled water + Tween-80): 159 % of control
- T/C (dose: 40.0 mg/kg/injection, schedule: Q01DX009 (ip), vehicle: acid diluted with saline): 202 % of control
- T/C (dose: 40.0 mg/kg/injection, schedule: Q01DX009 (ip), vehicle: distilled water + Tween-80): 162 % of control
